From patent US20250368683A1, “METHOD FOR TREATING OR PREVENTING BRONCHIAL ALLERGIC DISEASES WITH PEPTIDE COMPOSITION” (Greenyn Biotechnology Co., Ltd, priority 2024, published 2025)

Assays:
Type in all cases: cell-based, mouse
IL-4 = assay: Cell test: IL-4 secretion by P815 cells stimulated with compound 48/80 (ELISA); set-up: unit not given here; details: 20 minutes pre-incubation with polypeptide, then compound 48/80, total 6 hours, supernatant ELISA
Protocol: (§1) In this example, the cell line used was the P815 mouse mastocytoma cell line, and the allergen was compound 48/80. To start with, each of the polypeptides represented by SEQ ID No. 1-10 was co-cultured with the P815 cells for 20 minutes, was then added with compound 48/80, and then continued co-culturing for a total of 6 hours. When the culturing process was completed, the supernatants were collected, and the amounts of IL-4 and IL-13 secretions were analyzed by enzyme-linked immunosorbent assay (ELISA), with the results shown in FIG. 1 and Table 2.

IL-13 = assay: Cell test: IL-13 secretion by P815 cells stimulated with compound 48/80 (ELISA); set-up: IL-13 inhibitory activity: unit not given here; details: for IL-13 inhibitory activity: 20 minutes pre-incubation with polypeptide, then compound 48/80, total 6 hours, supernatant ELISA; for IL-13 inhibitory activity (in words): compound 48/80
Protocol: as §1

Th2 pathway = assay: Cell test: overall inhibitory activity on the Th2 pathway (IL-4 and IL-13, P815 cells); details: all in all, from IL-4 and IL-13 results in P815 cells
Protocol: as §1
It can be known from the results in FIG. 1 and Table 2 that the polypeptides represented by SEQ ID No. 1-10 had IL-4 inhibitory activity; that the polypeptides represented by SEQ ID NO.

Sequence	IL-4 inhibitory activity (IL-4)	IL-13 inhibitory activity (IL-13)	IL-13 inhibitory activity (in words) (IL-13)	inhibitory activity on the Th2 pathway (in words) (Th2 pathway)
ALYPLLTTLTD [SEQ ID No. 5]	−13.1	−71.4	had IL-13 inhibitory activity	
GHCGCSSG [SEQ ID No. 8]	−38.5	0.0		relatively good inhibitory activity
IGVDEHYTPI [SEQ ID No. 10]	−7.2	0.0		
INFVTEEDKR [SEQ ID No. 1]	−25.2	0.0		
LGVTNINISDP [SEQ ID No. 2]	−16.0	0.0		
LVGTDVATAQAP [SEQ ID No. 7]	−23.9	0.0		
NFIVTGLQDIM [SEQ ID No. 9]	−11.5	−57.1	had IL-13 inhibitory activity	relatively good inhibitory activity
RLTDYFTID [SEQ ID No. 3]	−8.9	0.0		
SMNLSLVLQVV [SEQ ID No. 4]	−32.9	−21.4	had IL-13 inhibitory activity	relatively good inhibitory activity
VRYLEWSNIESIIA [SEQ ID No. 6]	−22.2	−60.7		relatively good inhibitory activity
